# Literature values as cited in patent publication US20260335309A1, “METHODS OF TREATING UVEAL MELANOMA” (IDEAYA BIOSCIENCES, INC., priority 2022, published 2026).
# System: uveal melanoma cells harboring GNAQ mutations
# Conditions: by targeting PKC/ERK1/2 and PKC/NF-xB pathways; X. Wu et al., Mol. Cancer Ther. 2012
structure (smiles),measurement,value
CN1CCN(c2nc(C3=C(c4c[nH]c5ccccc45)C(=O)NC3=O)c3ccccc3n2)CC1 [sotrastaurin],inhibition of growth of uveal melanoma cells harboring GNAQ mutations,selectively inhibit the growth of uveal melanoma cells harboring GNAQ mutations
